The Cmax is the highest concentration seen after dosing. One may read the solubility as how much of the substance goes into solution per volume. A higher solubility goes with a readily soluble substance.

Three compounds from ChEMBL document CHEMBL3881527, “Multi-functional small molecules as anti-proliferative agents” (2008) can be followed below.

Structures are written as SMILES. Bounds are passed on as bounds.

Data set [1] has as its system Colon. Nature of the data set: Cmax in CD1 mouse colon at 20 mg/kg, iv administered in 30% captisol as 2 mins infusion by LC/MS/MS analysis. In kind it is ADME, organism-based. Particulars: in vivo. Further details: dose 20 mg/kg, route intravenous.
The nature of data set [2]: Drug uptake in iv dosed Sprague-Dawley rat plasma administered in 30% captisol as 5 mins infusion. In kind it is ADME, organism-based. The conditions noted are these: in vivo.
The nature of data set [3]: Chemical stability in diluted solution. The format is physicochemical.
Data set [4] in a line: Solubility of the compound at pH 2 to 3. The format is physicochemical. Particulars: buffer.
Data set [5] in a line: Solubility of the compound at pH 3 to 4. In kind it is physicochemical. The conditions noted are these: buffer.
Data set [6] in a line: Solubility of the compound at pH 4 to 5. The format is physicochemical. The conditions noted are these: buffer.

`C#Cc1cccc(Nc2ncnc3cc(OC)c(OCCCCCCC(=O)NO)cc23)c1.Cl` gave a Cmax in data set [1] of 8.5 µM. Also, the Drug uptake entry in data set [2] is “Dose-dependent effect”. Further, in data set [3], the Stability is greater than 12 h. The compound also returned a solubility in data set [4] of 25 mg/mL.
As for `C#Cc1cccc(Nc2ncnc3cc(OC)c(OCCCCCCC(=O)NO)cc23)c1.O=C(O)C(O)C(O)C(=O)O`, the concentration in solution in data set [5] (solubility) came to 60 mg/mL. The same compound had a Stability in data set [3] greater than 12 h.
Turning to `C#Cc1cccc(Nc2ncnc3cc(OC)c(OCCCCCCC(=O)NO)cc23)c1.O=C(O)CC(O)(CC(=O)O)C(=O)O`, the solubility in data set [6] turned out to be 25 mg/mL. This compound had a Stability in data set [3] greater than 12 h.
